Experimental data from ChEMBL document CHEMBL1135887, “Substituted pentacyclic carbazolones as novel muscarinic allosteric agents: synthesis and structure-affinity and cooperativity relationships” (J Med Chem, 2002).

Experiments:
[1] = biological target: T1, Muscarinic acetylcholine receptor M4 (Homo sapiens) (UniProt P08173); assay: Subtype selectivity and the cooperativity with N-methyl Scopolamine (NMS) at Muscarinic acetylcholine receptor M4; Activity range is 0.2-0.8
T1 sequence (whole entry): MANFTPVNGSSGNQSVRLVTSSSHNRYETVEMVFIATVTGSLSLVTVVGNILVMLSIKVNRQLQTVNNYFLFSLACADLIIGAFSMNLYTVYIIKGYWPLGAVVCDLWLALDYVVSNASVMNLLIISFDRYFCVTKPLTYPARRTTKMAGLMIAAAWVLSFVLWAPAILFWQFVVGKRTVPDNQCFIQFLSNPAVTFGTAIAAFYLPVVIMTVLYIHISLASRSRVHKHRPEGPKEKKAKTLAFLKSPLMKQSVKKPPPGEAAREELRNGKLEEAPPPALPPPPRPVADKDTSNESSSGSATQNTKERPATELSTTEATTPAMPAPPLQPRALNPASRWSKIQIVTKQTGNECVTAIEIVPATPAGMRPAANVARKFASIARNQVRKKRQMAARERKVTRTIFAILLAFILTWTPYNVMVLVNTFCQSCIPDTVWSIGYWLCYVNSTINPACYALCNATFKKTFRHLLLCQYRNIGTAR

[2] = biological target: T2, Muscarinic acetylcholine receptor M1 (Homo sapiens) (UniProt P11229); assay: Logarithm of affinity (log 1/M) at the (N-methyl Scopolamine) NMS-liganded muscarinic acetylcholine receptor M1 by using semiquantitative equilibrium and off-rate assay
T2 sequence (whole entry): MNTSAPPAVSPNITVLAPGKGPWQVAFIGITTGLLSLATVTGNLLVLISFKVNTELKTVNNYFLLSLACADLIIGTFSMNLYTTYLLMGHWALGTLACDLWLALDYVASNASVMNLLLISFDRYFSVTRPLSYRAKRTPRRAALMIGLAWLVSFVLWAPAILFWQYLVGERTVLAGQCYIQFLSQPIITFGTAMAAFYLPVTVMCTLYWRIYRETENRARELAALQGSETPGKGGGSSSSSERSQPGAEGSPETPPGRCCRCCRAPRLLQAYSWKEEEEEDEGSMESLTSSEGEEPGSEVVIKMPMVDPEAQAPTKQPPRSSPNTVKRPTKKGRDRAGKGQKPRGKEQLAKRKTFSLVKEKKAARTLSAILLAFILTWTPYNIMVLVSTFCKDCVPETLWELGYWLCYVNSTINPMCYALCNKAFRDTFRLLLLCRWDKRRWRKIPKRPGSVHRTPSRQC

[3] = biological target: T2, Muscarinic acetylcholine receptor M1 (Homo sapiens); assay: Logarithm of affinity (log 1/M) at the free muscarinic acetylcholine receptor M1 by using semiquantitative equilibrium and off-rate assay
[4] = biological target: Muscarinic acetylcholine receptor M3 (Homo sapiens) (UniProt P20309); assay: Subtype selectivity and the cooperativity with N-methyl Scopolamine (NMS) at muscarinic acetylcholine receptor M3; Activity range is 0.2-0.8
Muscarinic acetylcholine receptor M3 (Homo sapiens), sequence (P20309 whole entry, looked up): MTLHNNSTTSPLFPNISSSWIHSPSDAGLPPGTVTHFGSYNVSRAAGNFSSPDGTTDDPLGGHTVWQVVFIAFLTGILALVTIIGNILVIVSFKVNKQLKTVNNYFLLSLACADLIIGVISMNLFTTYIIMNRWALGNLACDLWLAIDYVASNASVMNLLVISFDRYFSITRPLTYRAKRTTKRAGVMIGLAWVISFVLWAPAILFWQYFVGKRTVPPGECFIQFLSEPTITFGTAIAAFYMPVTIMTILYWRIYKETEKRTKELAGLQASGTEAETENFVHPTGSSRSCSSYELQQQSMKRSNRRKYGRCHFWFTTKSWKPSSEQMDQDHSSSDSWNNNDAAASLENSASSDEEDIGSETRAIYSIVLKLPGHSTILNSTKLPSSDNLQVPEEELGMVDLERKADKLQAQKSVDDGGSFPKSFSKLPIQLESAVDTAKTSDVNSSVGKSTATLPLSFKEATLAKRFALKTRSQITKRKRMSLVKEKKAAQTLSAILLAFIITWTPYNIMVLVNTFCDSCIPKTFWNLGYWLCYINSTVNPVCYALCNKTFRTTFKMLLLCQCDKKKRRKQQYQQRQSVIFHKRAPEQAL

[5] = biological target: T1, Muscarinic acetylcholine receptor M4 (Homo sapiens); assay: Logarithm of affinity (log 1/M) at the (N-methyl Scopolamine) NMS-liganded muscarinic acetylcholine receptor M4 by using semiquantitative equilibrium and off-rate assay
[6] = biological target: T1, Muscarinic acetylcholine receptor M4 (Homo sapiens); assay: Logarithm of affinity (log 1/M) at the muscarinic acetylcholine receptor M4 by using semiquantitative equilibrium and off-rate assay
[7] = biological target: T3, Muscarinic acetylcholine receptor M2 (Homo sapiens) (UniProt P08172); assay: Logarithm of affinity (log 1/M) at the (N-methyl Scopolamine) NMS-liganded muscarinic acetylcholine receptor M2 by using semiquantitative equilibrium and off-rate assay
T3 sequence (whole entry): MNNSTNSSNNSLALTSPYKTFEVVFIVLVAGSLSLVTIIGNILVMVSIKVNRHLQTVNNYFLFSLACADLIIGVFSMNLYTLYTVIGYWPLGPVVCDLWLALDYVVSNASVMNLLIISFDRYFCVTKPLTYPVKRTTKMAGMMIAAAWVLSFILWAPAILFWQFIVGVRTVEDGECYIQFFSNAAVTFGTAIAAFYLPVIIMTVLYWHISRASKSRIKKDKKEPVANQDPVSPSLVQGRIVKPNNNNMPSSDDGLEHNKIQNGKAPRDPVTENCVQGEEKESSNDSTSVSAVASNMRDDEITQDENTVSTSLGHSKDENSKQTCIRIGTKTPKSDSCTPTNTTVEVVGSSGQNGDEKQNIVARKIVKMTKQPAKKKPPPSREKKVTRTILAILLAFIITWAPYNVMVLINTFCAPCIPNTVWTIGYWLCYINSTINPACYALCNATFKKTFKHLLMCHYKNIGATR

[8] = biological target: T3, Muscarinic acetylcholine receptor M2 (Homo sapiens); assay: Logarithm of affinity (log 1/M) at the muscarinic acetylcholine receptor M2 by using semiquantitative equilibrium and off-rate assay
[9] = biological target: T2, Muscarinic acetylcholine receptor M1 (Homo sapiens); assay: Subtype selectivity and the cooperativity with N-methyl Scopolamine (NMS) at Muscarinic acetylcholine receptor M1; Activity range is 0.2-0.8
[10] = biological target: T3, Muscarinic acetylcholine receptor M2 (Homo sapiens); assay: Subtype selectivity and the cooperativity with N-methyl Scopolamine (NMS) at Muscarinic acetylcholine receptor M2; Activity range is 0.2-0.8
[11] = biological target: Muscarinic acetylcholine receptor M3 (Homo sapiens) (UniProt P20309); assay: Logarithm of affinity (log 1/M) at the (N-methyl Scopolamine) NMS-liganded muscarinic acetylcholine receptor M3 by using semiquantitative equilibrium and off-rate assay
[12] = biological target: Muscarinic acetylcholine receptor M3 (Homo sapiens) (UniProt P20309); assay: Logarithm of affinity (log 1/M) at the muscarinic acetylcholine receptor M3 by using semiquantitative equilibrium and off-rate assay
[13] = biological target: T1, Muscarinic acetylcholine receptor M4 (Homo sapiens); assay: Subtype selectivity and the cooperativity with N-methyl Scopolamine (NMS) at Muscarinic acetylcholine receptor M4; Activity range is 0.81-1.19
[14] = biological target: Muscarinic acetylcholine receptor M3 (Homo sapiens) (UniProt P20309); assay: Subtype selectivity and the cooperativity with N-methyl Scopolamine (NMS) at Muscarinic acetylcholine receptor M3
[15] = biological target: T2, Muscarinic acetylcholine receptor M1 (Homo sapiens); assay: Subtype selectivity and the cooperativity with N-methyl Scopolamine (NMS) at Muscarinic acetylcholine receptor M1
[16] = biological target: T3, Muscarinic acetylcholine receptor M2 (Homo sapiens); assay: Subtype selectivity and the cooperativity with N-methyl Scopolamine (NMS) at Muscarinic acetylcholine receptor M2
[17] = biological target: T1, Muscarinic acetylcholine receptor M4 (Homo sapiens); assay: Subtype selectivity and the cooperativity with N-methyl Scopolamine (NMS) at Muscarinic acetylcholine receptor M4
[18] = biological target: Muscarinic acetylcholine receptor M3 (Homo sapiens) (UniProt P20309); assay: Subtype selectivity and the cooperativity with N-methyl Scopolamine (NMS) at Muscarinic acetylcholine receptor M3; […]
[19] = biological target: T2, Muscarinic acetylcholine receptor M1 (Homo sapiens); assay: Subtype selectivity and the cooperativity with N-methyl Scopolamine (NMS) at Muscarinic acetylcholine receptor M1; Activity range is 0.81-1.19
[20] = biological target: T1, Muscarinic acetylcholine receptor M4 (Homo sapiens); assay: Subtype selectivity and cooperativity with N-methyl Scopolamine (NMS) at Muscarinic acetylcholine receptor M4; Activity range is 1.2-3
[21] = biological target: T3, Muscarinic acetylcholine receptor M2 (Homo sapiens); assay: Subtype selectivity and the cooperativity with N-methyl Scopolamine (NMS) at Muscarinic acetylcholine receptor M2; Activity range is 0.81-1.19
[22] = biological target: T3, Muscarinic acetylcholine receptor M2 (Homo sapiens); assay: Subtype selectivity and the cooperativity with N-methyl Scopolamine (NMS) at Muscarinic acetylcholine receptor M2; Activity range is 1.2-3

| SMILES | Cooperativity [1] | Log 1/M [2] | Log 1/M [3] | Cooperativity [4] | Log 1/M [5] | Log 1/M [6] | Log 1/M [7] | Log 1/M [8] | Cooperativity [9] | Cooperativity [10] | Log 1/M [11] | Log 1/M [12] | Cooperativity [16] | Cooperativity [19] | Cooperativity [20] | other results |
| --- | --- | --- | --- | --- | --- | --- | --- | --- | --- | --- | --- | --- | --- | --- | --- | --- |
| COc1cc2c3c4c(cc5c3n(c2cc1OC)C(=O)CC5(C)C)CCNC4 | 0.8 | 6.29 | 6.88 | 0.8 | 6.37 | 6.67 | 6.7 | 7.08 | 0.8 | 0.8 | 5.47 | 6.03 | – | – | – | – |
| O=C(c1ccc2c(c1)c1c3c(cc4c1n2C(=O)CC4)CNCC3)N1CCOCC1 | 0.8 | 4.7 | 5.1 | – | 4.54 | 5.14 | 5.21 | 4.71 | – | – | 3.57 | 4.45 | > 3 | – | – | Cooperativity [14]: < 0.2; Cooperativity [15]: < 0.2 |
| COc1cc2c(c(OC)c1OC)c1c3c(cc4c1n2C(=O)CC4)CNCC3 | – | 6.52 | 6.74 | 0.8 | 6.21 | 5.97 | 6.67 | 6.69 | 0.8 | – | 5.33 | 5.63 | – | – | 3 | Cooperativity [21]: 1.19 |
| COc1ccc2c3c4c(cc5c3n(c2c1)C(=O)CC5)CCNC4 | – | 6.17 | 6.13 | 0.8 | 6 | 5.68 | 6.18 | 5.92 | – | – | 4.86 | 5.14 | – | 1.19 | 3 | Cooperativity [22]: 3 |
| CC1(C)CC(=O)n2c3cccc(O)c3c3c4c(cc1c32)CNCC4 | – | 5.84 | 5.8 | 0.8 | 5.97 | 5.75 | 5.88 | 5.56 | – | – | 4.84 | 5.15 | – | 1.19 | 3 | Cooperativity [22]: 3 |

Second part, led by results:

| Cooperativity [1] | Log 1/M [2] | Log 1/M [3] | Cooperativity [4] | Log 1/M [5] | Log 1/M [6] | Log 1/M [7] | Log 1/M [8] | Cooperativity [9] | Cooperativity [10] | Log 1/M [11] | Log 1/M [12] | Cooperativity [16] | Cooperativity [19] | Cooperativity [20] | SMILES | other results |
| --- | --- | --- | --- | --- | --- | --- | --- | --- | --- | --- | --- | --- | --- | --- | --- | --- |
| 0.8 | 5.72 | 6.14 | 0.8 | 6.01 | 5.04 | 6.35 | 6.39 | 0.8 | 0.8 | 4.83 | 5.43 | – | – | – | COC(=O)c1ccc2c3c4c(cc5c3n(c2c1)C(=O)CC5)CNCC4 | – |
| – | 5.46 | 5.87 | 0.8 | 5.36 | 5.85 | 5.58 | 5.79 | 0.8 | 0.8 | 4.68 | 5.19 | – | – | – | N#Cc1ccc2c3c4c(cc5c3n(c2c1)C(=O)CC5)CNCC4 | Cooperativity [13]: 1.19 |
| – | 5.58 | 5.66 | – | 6.14 | 5.61 | 6.54 | 5.93 | – | – | 5.23 | 5.16 | > 3 | 1.19 | – | O=C1CCc2cc3c(c4c5cc(Cl)ccc5n1c24)CCNC3 | Cooperativity [17]: > 3; Cooperativity [18]: 1.19 |
| – | 6.07 | 5.79 | – | 6.05 | 5.65 | 6.25 | 5.61 | – | – | 5.47 | 4.89 | > 3 | – | – | O=C1CCc2cc3c(c4c5cc(O)ccc5n1c24)CCNC3 | Cooperativity [17]: > 3; Cooperativity [14]: > 3; Cooperativity [15]: > 3 |
| – | 5.85 | 6.19 | 0.8 | 5.91 | 5.84 | 6.03 | 6.14 | 0.8 | 0.8 | 4.88 | 5.55 | – | – | – | COC(=O)c1ccc2c(c1)c1c3c(cc4c1n2C(=O)CC4)CCNC3 | Cooperativity [13]: 1.19 |
